# According to ChEMBL document CHEMBL1125842, “Synthesis and anticonvulsant activity of 2-iminohydantoins” (J Med Chem, 1991):
# The source made the active and inactive calls. The calls are words filed in the database; no cut-off is given here.
# Assays:
# [1] = tested on: Mus musculus; assay: Anticonvulsant activity was measured from mES test by delivering the drug intraperitoneally after 0.5 hr; format: functional; details: ip
# [2] = tested on: Mus musculus; assay: Anticonvulsant activity was measured from scMET test by delivering the drug intraperitoneally after 0.5 hr; format: functional; details: ip
# [3] = species on record: Mus musculus
# [4] = species on record: Mus musculus; remark: listed apart in the source
# Description: ED50 was evaluated from scMET test in mice by delivering intraperitoneally and the value was determined at peak time effect or peak neurologic effect; NA-Not active
# [5] = tested on: Mus musculus; assay: ED50 was evaluated from scMET test in mice by delivering intraperitoneally and the value was determined at peak time effect or peak neurologic effect.; format: functional; details: ip
# [6] = tested on: Mus musculus; assay: ED50 was evaluated from MES test in mice by delivering intraperitoneally and the value was determined at peak time effect or peak neurologic effect.; format: functional; details: ip
# [7] = species on record: Mus musculus; assay: animal or person; details: ip
# [8] = Protective index was determined as ratio of TD50 to ED50(scMET method); format: functional
# [9] = Protective index was determined as ratio of TD50 to ED50(MES method); format: functional
# [10] = tested on: Mus musculus; assay: Anticonvulsant activity was measured from mES test by delivering the drug intraperitoneally after 0.5 hr; NA-Not active; format: functional, organism-based
# [11] = Neurotoxicity was determined from the rotarod ataxia test for the compound by the intraperitoneal administration.; format: toxicity, organism-based; details: mouse, in vivo, ip
Structure (SMILES),ED50 [1],ED50 [2],ED50 [5],ED50 [6],other results
NC1=NC(=O)[C@H](Cc2ccccc2)N1C(=O)OCc1ccccc1,213 mg/kg,> 1000 mg/kg,,,
O=C1NC(=O)C(c2ccccc2)(c2ccccc2)N1 [PHENYTOIN],2.3 mg/kg,,,,ED50 [3]: inactive; ED50 [4]: inactive
CC(C)C[C@@H]1C(=O)N=C(N)N1C(=O)OCc1ccccc1,,547 mg/kg,,,
CCC1(C)CC(=O)NC1=O (stereo not given) [ETHOSUXIMIDE],,,130 mg/kg,> 1000 mg/kg,TD50 [7]: 441 mg/kg
CCC1(c2ccccc2)C(=O)NC(=O)NC1=O [PHENOBARBITAL],,,13.2 mg/kg,21.8 mg/kg,TD50 [7]: 69 mg/kg
NC1=NC(=O)CN1C(=O)OCc1ccccc1,459 mg/kg,,,,
CCC1(c2ccccc2)NC(=O)N(C)C1=O (stereo not given) [MEPHENYTOIN],,,31 mg/kg,61 mg/kg,
NC1=NC(=O)[C@H](Cc2ccccc2)N1,97.8 mg/kg,> 1000 mg/kg,,,
NC(=O)NC(=O)Cc1ccccc1 [PHENACEMIDE],,,,87 mg/kg,PI [8]: 3.6; PI [9]: 4.8
O=C1NC(=S)NC1(c1ccccc1)c1ccccc1 [THIOPHENYTOIN],,1340 mg/kg,,,ED50 [10]: inactive
CC(C)C[C@H]1C(=O)N=C(N)N1C(=O)OCc1ccccc1,44.5 mg/kg,92.8 mg/kg,141 mg/kg,98.6 mg/kg,TD50 [11]: 350 mg/kg; PI [8]: 2.5; PI [9]: 3.5
CC(C)C[C@@H]1N=C(N)NC1=O,,> 300 mg/kg,,,
